One test deals with HCT116 MTAP null cells. Nature of the test: HCT116 MTAP null cell proliferation / viability (CellTiter-Glo, 6 days). The class given is cell-based. Particulars: HCT116-MTAP null, 144 h, HCT116 MTAP null cells, 6 days, CellTiter-Glo; read-out: HCT-116 MTAP null IC50. In outline: (§1)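 IC50 values derive from sigmoidal dose-response fits, some with Hill slope fixed at −1 and top constrained to 100%, others from 4-parameter logistic models. They reflect CellTiter-Glo viability after 6 days of compound exposure at up to 10 or 50 μM.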
On the technique in general: ATP-based viability assays read luminescence as a measure of living cells.

The next test concerns HCT116 WT cells. Nature of the test: HCT116 WT cell proliferation / viability (CellTiter-Glo, 6 days). The note with it: Homo sapiens, HCT-116, 144 h, HCT116 WT cells, 6 days, CellTiter-Glo; read-out: HCT-116 WT IC50. The format is cell-based. A digest of the protocol:
as §1

Bounds are passed on as bounds.

Broadly, the IC50 is the point on the concentration scale where inhibition reaches its midpoint. Take `CCN(Cc1ccc(C(F)(F)F)cn1)C(=O)c1cc2c(cc1Cl)nc(N)c1cnn(C)c12` [Example 793, 4-amino-7-chloro-N-ethyl-1-methyl-N-((5-(trifluoromethyl)-2-pyridinyl)methyl)-1H-pyrazolo[4,3-c]quinoline-8-carboxamide]: the IC50 in the test on HCT116 MTAP null cells was found to be 11 nM; in the test with HCT116 WT cells, 296 nM.
Taken in the same sequence, the figures for `CCN(Cc1ccc(C(F)(F)F)nn1)C(=O)c1cc2c(cc1Cl)nc(N)c1cnn(C)c12` [Example 794, 4-amino-7-chloro-N-ethyl-1-methyl-N-((6-(trifluoromethyl)-3-pyridazinyl)methyl)-1H-pyrazolo[4,3-c]quinoline-8-carboxamide] were 20 nM and 499 nM.
Taken in the same sequence, the figures for `Cn1ncc2c(N)nc3cc(Cl)c(C(=O)N(Cc4ccc(C(F)(F)F)cn4)C4CC4)cc3c21` [Example 795, 4-amino-7-chloro-N-cyclopropyl-1-methyl-N-((5-(trifluoromethyl)-2-pyridinyl)methyl)-1H-pyrazolo[4,3-c]quinoline-8-carboxamide] were 8 nM and 379 nM.
Taken in the same sequence, the figures for `Cn1ncc2c(N)nc3cc(Cl)c(C(=O)N(Cc4ccc(C(F)(F)F)nn4)C4CC4)cc3c21` [Example 796, 4-amino-7-chloro-N-cyclopropyl-1-methyl-N-((6-(trifluoromethyl)-3-pyridazinyl)methyl)-1H-pyrazolo[4,3-c]quinoline-8-carboxamide] were 34 nM and 1670 nM.
Consider `Cn1ncc2c(N)nc3ccc(C(=O)N(Cc4ccc(C(F)(F)F)cn4)CC(F)(F)F)cc3c21` [Example 797, 4-amino-1-methyl-N-(2,2,2-trifluoroethyl)-N-((5-(trifluoromethyl)-2-pyridinyl)methyl)-1H-pyrazolo[4,3-c]quinoline-8-carboxamide], for which the IC50 with HCT116 MTAP null cells was determined as 41 nM; with HCT116 WT cells, 755 nM.
Turning to `Cn1ncc2c(N)nc3cc(Cl)c(C(=O)N(Cc4ccc(C(F)(F)F)cn4)C4CCC4)cc3c21` [Example 798, 4-amino-7-chloro-N-cyclobutyl-1-methyl-N-((5-(trifluoromethyl)-2-pyridinyl)methyl)-1H-pyrazolo[4,3-c]quinoline-8-carboxamide], the IC50 in the test on HCT116 MTAP null cells turned out to be 10 nM; in the test on HCT116 WT cells, 152 nM.
Taken in the same sequence, the figures for `Cn1ncc2c(N)nc3cc(Cl)c(C(=O)N(Cc4ccc(C(F)(F)F)nn4)C4CCC4)cc3c21` [Example 799, 4-amino-7-chloro-N-cyclobutyl-1-methyl-N-((6-(trifluoromethyl)-3-pyridazinyl)methyl)-1H-pyrazolo[4,3-c]quinoline-8-carboxamide] were 8 nM and 263 nM.
Taken in the same sequence, the figures for `Cn1ncc2c(N)nc3cc(F)c(C(=O)N(Cc4ccc(C(F)(F)F)cn4)CC(F)(F)F)cc3c21` [Example 800, 4-amino-7-fluoro-1-methyl-N-(2,2,2-trifluoroethyl)-N-((5-(trifluoromethyl)-2-pyridinyl)methyl)-1H-pyrazolo[4,3-c]quinoline-8-carboxamide] were 7 nM and 245 nM.
The like results for `Cn1ncc2c(N)nc3cc(F)c(C(=O)N(Cc4cocn4)C4CCC4)cc3c21` [Example 801, 4-amino-N-cyclobutyl-7-fluoro-1-methyl-N-(1,3-oxazol-4-ylmethyl)-1H-pyrazolo[4,3-c]quinoline-8-carboxamide] were, in that order, 153 nM and 13600 nM.
Consider `CN(Cc1ccc(C(F)(F)F)cn1)C(=O)c1cc2c(cc1F)nc(N)c1cnn(C)c12` [Example 802, 4-amino-7-fluoro-N,1-dimethyl-N-((5-(trifluoromethyl)-2-pyridinyl)methyl)-1H-pyrazolo[4,3-c]quinoline-8-carboxamide], for which the figures for the IC50 with HCT116 MTAP null cells and in the test with HCT116 WT cells were 21 nM and 1380 nM, respectively.
The like results for `Cn1ncc2c(N)nc3cc(F)c(C(=O)N(Cc4ccc(C(F)(F)F)cn4)C4CC4)cc3c21` [Example 803, 4-amino-N-cyclopropyl-7-fluoro-1-methyl-N-((5-(trifluoromethyl)-2-pyridinyl)methyl)-1H-pyrazolo[4,3-c]quinoline-8-carboxamide] were, in that order, 12 nM and 384 nM.
Taken in the same sequence, the figures for `Cn1ncc2c(N)nc3cc(F)c(C(=O)N(Cc4ccc(C(F)(F)F)nn4)C4CC4)cc3c21` [Example 804, 4-amino-N-cyclopropyl-7-fluoro-1-methyl-N-((6-(trifluoromethyl)-3-pyridazinyl)methyl)-1H-pyrazolo[4,3-c]quinoline-8-carboxamide] were 26 nM and 1800 nM.
On to `CC(C)N(Cc1ccc(C(F)(F)F)cn1)C(=O)c1cc2c(cc1F)nc(N)c1cnn(C)c12` [Example 805, 4-amino-7-fluoro-1-methyl-N-(2-propanyl)-N-((5-(trifluoromethyl)-2-pyridinyl)methyl)-1H-pyrazolo[4,3-c]quinoline-8-carboxamide], for which the figures for the IC50 with HCT116 MTAP null cells and in the test with HCT116 WT cells were 8 nM and 121 nM, respectively.
Taken in the same sequence, the figures for `COc1nc(C(F)(F)F)ccc1CN(C)C(=O)c1cc2c(cc1F)nc(N)c1cnn(C)c12` [Example 806, 4-amino-7-fluoro-N-((2-methoxy-6-(trifluoromethyl)-3-pyridinyl)methyl)-N,1-dimethyl-1H-pyrazolo[4,3-c]quinoline-8-carboxamide] were 56 nM and 3160 nM.
Taken in the same sequence, the figures for `Cn1ncc2c(N)nc3cc(F)c(C(=O)N(Cc4ccc(C(F)(F)F)cn4)C4CCC4)cc3c21` [Example 807, 4-amino-N-cyclobutyl-7-fluoro-1-methyl-N-((5-(trifluoromethyl)-2-pyridinyl)methyl)-1H-pyrazolo[4,3-c]quinoline-8-carboxamide] were 5 nM and 114 nM.
The like results for `Cn1ncc2c3cc(C(=O)N(Cc4ccc(C(F)(F)F)cn4)C4CC4)c(Cl)cc3nc(N)c21` [Example 808, 4-amino-7-chloro-N-cyclopropyl-3-methyl-N-((5-(trifluoromethyl)-2-pyridinyl)methyl)-3H-pyrazolo[3,4-c]quinoline-8-carboxamide] were, in that order, 52 nM and 3130 nM.
Regarding `Cn1ncc2c(N)nc3cc(F)c(C(=O)N(Cc4ncc(C(F)(F)F)cc4F)C4CC4)cc3c21` [Example 809, 4-amino-N-cyclopropyl-7-fluoro-N-((3-fluoro-5-(trifluoromethyl)-2-pyridinyl)methyl)-1-methyl-1H-pyrazolo[4,3-c]quinoline-8-carboxamide], the IC50 came out at 31 nM with HCT116 MTAP null cells and 1790 nM in the test with HCT116 WT cells.
Taken in the same sequence, the figures for `CN(Cc1ccc(C(F)(F)F)cn1)C(=O)c1cc2c(cc1C(F)(F)F)nc(N)c1cnn(C)c12` [Example 810, 4-amino-N,1-dimethyl-7-(trifluoromethyl)-N-((5-(trifluoromethyl)-2-pyridinyl)methyl)-1H-pyrazolo[4,3-c]quinoline-8-carboxamide] were 226 nM and 13800 nM.
As for `CN(Cc1ccc(C(F)(F)F)nn1)C(=O)c1cc2c(cc1C(F)(F)F)nc(N)c1cnn(C)c12` [Example 811, 4-amino-N,1-dimethyl-7-(trifluoromethyl)-N-((6-(trifluoromethyl)-3-pyridazinyl)methyl)-1H-pyrazolo[4,3-c]quinoline-8-carboxamide], the results for the IC50 in the test with HCT116 MTAP null cells and in the test on HCT116 WT cells were 645 nM and more than 50000 nM, respectively.
The like results for `Cn1ncc2c(N)nc3cc(C(F)(F)F)c(C(=O)N(Cc4ccc(C(F)(F)F)cn4)C4CC4)cc3c21` [Example 812, 4-amino-N-cyclopropyl-1-methyl-7-(trifluoromethyl)-N-((5-(trifluoromethyl)-2-pyridinyl)methyl)-1H-pyrazolo[4,3-c]quinoline-8-carboxamide] were, in that order, 237 nM and 14100 nM.
Taken in the same sequence, the figures for `Cn1ncc2c(N)nc3cc(C(F)(F)F)c(C(=O)N(Cc4ccc(C(F)(F)F)nn4)C4CC4)cc3c21` [Example 813, 4-amino-N-cyclopropyl-1-methyl-7-(trifluoromethyl)-N-((6-(trifluoromethyl)-3-pyridazinyl)methyl)-1H-pyrazolo[4,3-c]quinoline-8-carboxamide] were 676 nM and 29300 nM.
The like results for `C[C@H](C1CC1)N(Cc1ccc(C(F)(F)F)nn1)C(=O)c1cc2c3c(c(N)nc2cc1F)COC3` [Example 814, 4-amino-N-((1R)-1-cyclopropylethyl)-7-fluoro-N-((6-(trifluoromethyl)-3-pyridazinyl)methyl)-1,3-dihydrofuro[3,4-c]quinoline-8-carboxamide] were, in that order, 44 nM and 1170 nM.
Take `C[C@@H](C1CC1)N(Cc1ccc(C(F)(F)F)nn1)C(=O)c1cc2c3c(c(N)nc2cc1F)COC3` [Example 815, 4-amino-N-((1S)-1-cyclopropylethyl)-7-fluoro-N-((6-(trifluoromethyl)-3-pyridazinyl)methyl)-1,3-dihydrofuro[3,4-c]quinoline-8-carboxamide]: the figures for the IC50 in the test with HCT116 MTAP null cells and in the test on HCT116 WT cells were 18 nM and 301 nM, respectively.
`Nc1nc2cc(F)c(C(=O)N(Cc3ccc(OCC(F)(F)F)nn3)CC3CC3)cc2c2c1COC2` [Example 816, 4-amino-N-(cyclopropylmethyl)-7-fluoro-N-((6-(2,2,2-trifluoroethoxy)-3-pyridazinyl)methyl)-1,3-dihydrofuro[3,4-c]quinoline-8-carboxamide]: the IC50 with HCT116 MTAP null cells came to 78 nM; in the test on HCT116 WT cells, 2490 nM.
The like results for `Cn1ncc2c3cc(C(=O)N(Cc4ccc(OCC(F)(F)F)nn4)CC4CC4)c(F)cc3nc(N)c21` [Example 817, 4-amino-N-(cyclopropylmethyl)-7-fluoro-3-methyl-N-((6-(2,2,2-trifluoroethoxy)-3-pyridazinyl)methyl)-3H-pyrazolo[3,4-c]quinoline-8-carboxamide] were, in that order, 28 nM and 689 nM.

These data come from patent US20240101570A1 (AMGEN INC., priority 2020, published 2024).
